Laboratory results published in US12162839B1, “4,5-bis(4-bromophenyl)-2-(4-bromophenyl)-1-hexyl-1H-imidazole as an antimicrobial compound” (KING FAISAL UNIVERSITY, priority 2023, dated 2024).

How the values were obtained:
Assay type in all cases: cell-based
Conditions in all cases: after 10, 20, 40 and 60 minutes at all dilutions 1:100, 1:200, 1:400, 1:800
Escherichia coli = assay: Antimicrobial testing by agar dilution, Escherichia coli
Description: (§1) The antimicrobial properties of the 4,5-bis(4-bromophenyl)-2-(4-bromophenyl)-1-hexyl-1H-imidazole (5) were studied by the method of agar dilution. Test solutions of each compound were prepared in concentration of 1% using dimethylformamide as a solvent then they are diluted in physiological solution to obtain the final experimental dilutions 1:100, 1:200, 1:400, 1:800. The effect of these substances were compared with furacillin in a controllable study. The testing microbes used were gram positive bacteria Staphylococcus aureus, gram negative bacteria Escherichia coli, Pseudomonas aeruginosa and Candida albicans fungi were taken. The experiments used for this survey were meat-pentonlu agar (EPA) for cultivation of bacteria and Saburo environment for fungi. Each experiment used 1 ml of test solution on each plate 500 min. Add 2 drops of emulsified with microbes feel. All experimental samples were taken from the agar after 10, 20, 40, 60 minutes in the environment on the basis of Patrk planted. Bacteria were cultivated at a temperature of 37° C. for 1 day and the mushroom was kept in a thermostat for […] at a temperature of 28° C. in the. Then results were checked.

Staphylococcus aureus = assay: Antimicrobial testing by agar dilution, Staphylococcus aureus
Description: as §1

Pseudomonas aeruginosa = assay: Antimicrobial testing by agar dilution, Pseudomonas aeruginosa
Description: as §1

Candida albicans = assay: Antimicrobial testing by agar dilution, Candida albicans
Description: as §1

Measured: inhibition activity (in words)

CCCCCCn1c(-c2ccc(Br)cc2)nc(-c2ccc(Br)cc2)c1-c1ccc(Br)cc1 [4,5-bis(4-bromophenyl)-2-(4-bromophenyl)-1-hexyl-1H-imidazole]
highest inhibition activity: all assays above
